{
  "source": "patent US8026278B2",
  "about": "“Inhibitors of pyruvate kinase as therapeutic agents for cancer” (priority 2005, dated 2011)",
  "key": {"[1]": {"target": "T1, Pyruvate kinase isolated from rabbit muscle (Oryctolagus cuniculus, UniProt P11974)", "T1 construct": "Pyruvate kinase isolated from rabbit muscle; purchased Sigma-Aldrich; host or cells: rabbit muscle (tissue-derived enzyme)", "T1 sequence (P11974 whole entry)": "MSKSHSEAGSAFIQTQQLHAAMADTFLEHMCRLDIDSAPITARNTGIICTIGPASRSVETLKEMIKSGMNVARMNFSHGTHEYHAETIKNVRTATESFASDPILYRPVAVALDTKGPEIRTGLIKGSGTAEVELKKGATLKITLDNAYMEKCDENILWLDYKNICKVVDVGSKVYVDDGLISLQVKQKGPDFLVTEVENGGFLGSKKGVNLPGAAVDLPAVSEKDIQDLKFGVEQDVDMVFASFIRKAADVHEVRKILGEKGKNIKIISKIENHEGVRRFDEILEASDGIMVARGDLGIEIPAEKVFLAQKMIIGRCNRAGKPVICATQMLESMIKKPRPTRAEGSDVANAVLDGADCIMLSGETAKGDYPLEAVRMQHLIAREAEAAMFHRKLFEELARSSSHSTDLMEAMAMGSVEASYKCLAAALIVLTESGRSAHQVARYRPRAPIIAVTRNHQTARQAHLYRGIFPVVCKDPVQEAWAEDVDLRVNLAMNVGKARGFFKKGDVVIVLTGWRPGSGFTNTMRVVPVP", "assay": "Inhibition of pyruvate kinase (indirect assay quantifying ADP production)", "type": "biochemical", "experimental": "The compounds E-3-chlorophosphoenolpyruvate ditriethyl-ammonium salt (ECPDAT), Z-3-chlorophosphoenolpyruvate tritriethyl-ammonium salt (CPTP), phosphoenol-3-bromo-pyruvic acid mono-cyclohexyl ammonium salt (PBPA), 2-bromooxoethylphosphonic acid mono-cyclohexyl-ammonium salt (BOEPA) and 3-bromopyruvic acid (BrPyA) were tested for their efficiency at inhibiting pyruvate kinase. Pyruvate kinase isolated from rabbit muscle was purchased from Sigma-Aldrich. Pyruvate kinase was assayed indirectly by quantifying ADP production formed in the reaction ATP+pyruvate to ADP+phosphoenolpyruvate. Inhibitors were added to the reaction mixture immediately before the reaction was started by the addition of ATP."}, "[2]": {"tested_on": "MCF7 (breast) cancer cell line", "assay": "MTT assay, inhibition of cell proliferation, MCF7", "type": "cell-based", "conditions": "MCF7, 72 hours", "experimental": "(§1) The compounds of the invention were tested for their inhibition potential of cell proliferation. MCF7 (breast) and SF268 (glioma) cancer cell lines were incubated with different concentrations of the compounds and their viability was assessed using an MTT (3-(4,5-dimethylthiazol-2-yl)-2,5-diphenyltetrazolium bromide) assay. The MTT assay is well known in the art (see for example Slater et al., Biochim. Biophys. Acta 77 (1963) 383). The cells were incubated with a given inhibitor for 72 hours and assayed."}, "[3]": {"tested_on": "SF268 (glioma) cancer cell line", "assay": "MTT assay, inhibition of cell proliferation, SF268", "type": "cell-based", "conditions": "SF268, 72 hours", "experimental": "as §1"}},
  "data": [
    {"molecule": "Z-3-chlorophosphoenolpyruvate tritriethyl-ammonium salt [CPTP]", "values": [
      {"measurement": "Inhibition of pyruvate kinase compared with BrPyA", "setting": "[1]", "value": "inhibited pyruvate kinase at lower concentrations than BrPyA"},
      {"measurement": "% Inhibition", "setting": "[1]; Concentration 0.1 μM", "value": 0, "unit": "%"},
      {"measurement": "% Inhibition", "setting": "[1]; Concentration 1 μM", "value": 43.7, "unit": "%"},
      {"measurement": "% Inhibition", "setting": "[1]; Concentration 10 μM", "value": 48.4, "unit": "%"},
      {"measurement": "Inhibition of cell proliferation", "setting": "[2]", "value": "inhibited cell proliferation"},
      {"measurement": "% (A-Blank relative to control)", "setting": "[2]; 10 uM", "value": 98.7, "unit": "%"},
      {"measurement": "A-Blank (Average-Blank) O.D. at 570 nm", "setting": "[2]; 10 uM", "value": 0.7995, "unit": "O.D."},
      {"measurement": "Average O.D. reading at 570 nm", "setting": "[2]; 10 uM", "value": 0.8822, "unit": "O.D."},
      {"measurement": "% (A-Blank relative to control)", "setting": "[2]; 25 uM", "value": 98.796, "unit": "%"},
      {"measurement": "A-Blank (Average-Blank) O.D. at 570 nm", "setting": "[2]; 25 uM", "value": 0.8003, "unit": "O.D."},
      {"measurement": "Average O.D. reading at 570 nm", "setting": "[2]; 25 uM", "value": 0.883, "unit": "O.D."},
      {"measurement": "% (A-Blank relative to control)", "setting": "[2]; 50 uM", "value": 101.05, "unit": "%"},
      {"measurement": "A-Blank (Average-Blank) O.D. at 570 nm", "setting": "[2]; 50 uM", "value": 0.8185, "unit": "O.D."},
      {"measurement": "Average O.D. reading at 570 nm", "setting": "[2]; 50 uM", "value": 0.9013, "unit": "O.D."},
      {"measurement": "% (A-Blank relative to control)", "setting": "[2]; 75 uM", "value": 96.173, "unit": "%"},
      {"measurement": "A-Blank (Average-Blank) O.D. at 570 nm", "setting": "[2]; 75 uM", "value": 0.779, "unit": "O.D."},
      {"measurement": "Average O.D. reading at 570 nm", "setting": "[2]; 75 uM", "value": 0.8618, "unit": "O.D."},
      {"measurement": "% (A-Blank relative to control)", "setting": "[2]; 100 uM", "value": 96.358, "unit": "%"},
      {"measurement": "A-Blank (Average-Blank) O.D. at 570 nm", "setting": "[2]; 100 uM", "value": 0.7805, "unit": "O.D."},
      {"measurement": "Average O.D. reading at 570 nm", "setting": "[2]; 100 uM", "value": 0.8633, "unit": "O.D."},
      {"measurement": "% (A-Blank relative to control)", "setting": "[2]; 200 uM", "value": 88.241, "unit": "%"},
      {"measurement": "A-Blank (Average-Blank) O.D. at 570 nm", "setting": "[2]; 200 uM", "value": 0.7148, "unit": "O.D."},
      {"measurement": "Average O.D. reading at 570 nm", "setting": "[2]; 200 uM", "value": 0.7975, "unit": "O.D."},
      {"measurement": "% (A-Blank relative to control)", "setting": "[2]; 300 uM", "value": 81.4198, "unit": "%"},
      {"measurement": "A-Blank (Average-Blank) O.D. at 570 nm", "setting": "[2]; 300 uM", "value": 0.6595, "unit": "O.D."},
      {"measurement": "Average O.D. reading at 570 nm", "setting": "[2]; 300 uM", "value": 0.7422, "unit": "O.D."},
      {"measurement": "% (A-Blank relative to control)", "setting": "[2]; 500 uM", "value": 71.39, "unit": "%"},
      {"measurement": "A-Blank (Average-Blank) O.D. at 570 nm", "setting": "[2]; 500 uM", "value": 0.5783, "unit": "O.D."},
      {"measurement": "Average O.D. reading at 570 nm", "setting": "[2]; 500 uM", "value": 0.661, "unit": "O.D."},
      {"measurement": "Inhibition of cell proliferation", "setting": "[3]", "value": "inhibited cell proliferation"},
      {"measurement": "% (A-Blank relative to control)", "setting": "[3]; 10 uM", "value": 99.42, "unit": "%"},
      {"measurement": "A-Blank (Average-Blank) O.D. at 570 nm", "setting": "[3]; 10 uM", "value": 0.6887, "unit": "O.D."},
      {"measurement": "Average O.D. reading at 570 nm", "setting": "[3]; 10 uM", "value": 0.775, "unit": "O.D."},
      {"measurement": "% (A-Blank relative to control)", "setting": "[3]; 25 uM", "value": 99.892, "unit": "%"},
      {"measurement": "A-Blank (Average-Blank) O.D. at 570 nm", "setting": "[3]; 25 uM", "value": 0.692, "unit": "O.D."},
      {"measurement": "Average O.D. reading at 570 nm", "setting": "[3]; 25 uM", "value": 0.7783, "unit": "O.D."},
      {"measurement": "% (A-Blank relative to control)", "setting": "[3]; 50 uM", "value": 98.232, "unit": "%"},
      {"measurement": "A-Blank (Average-Blank) O.D. at 570 nm", "setting": "[3]; 50 uM", "value": 0.6805, "unit": "O.D."},
      {"measurement": "Average O.D. reading at 570 nm", "setting": "[3]; 50 uM", "value": 0.7668, "unit": "O.D."},
      {"measurement": "% (A-Blank relative to control)", "setting": "[3]; 75 uM", "value": 93.829, "unit": "%"},
      {"measurement": "A-Blank (Average-Blank) O.D. at 570 nm", "setting": "[3]; 75 uM", "value": 0.65, "unit": "O.D."},
      {"measurement": "Average O.D. reading at 570 nm", "setting": "[3]; 75 uM", "value": 0.7363, "unit": "O.D."},
      {"measurement": "% (A-Blank relative to control)", "setting": "[3]; 100 uM", "value": 96.752, "unit": "%"},
      {"measurement": "A-Blank (Average-Blank) O.D. at 570 nm", "setting": "[3]; 100 uM", "value": 0.6703, "unit": "O.D."},
      {"measurement": "Average O.D. reading at 570 nm", "setting": "[3]; 100 uM", "value": 0.7565, "unit": "O.D."},
      {"measurement": "% (A-Blank relative to control)", "setting": "[3]; 200 uM", "value": 75.893, "unit": "%"},
      {"measurement": "A-Blank (Average-Blank) O.D. at 570 nm", "setting": "[3]; 200 uM", "value": 0.5258, "unit": "O.D."},
      {"measurement": "Average O.D. reading at 570 nm", "setting": "[3]; 200 uM", "value": 0.612, "unit": "O.D."},
      {"measurement": "% (A-Blank relative to control)", "setting": "[3]; 300 uM", "value": 57.4883, "unit": "%"},
      {"measurement": "A-Blank (Average-Blank) O.D. at 570 nm", "setting": "[3]; 300 uM", "value": 0.3982, "unit": "O.D."},
      {"measurement": "Average O.D. reading at 570 nm", "setting": "[3]; 300 uM", "value": 0.4845, "unit": "O.D."},
      {"measurement": "% (A-Blank relative to control)", "setting": "[3]; 500 uM", "value": 36.8459, "unit": "%"},
      {"measurement": "A-Blank (Average-Blank) O.D. at 570 nm", "setting": "[3]; 500 uM", "value": 0.2552, "unit": "O.D."},
      {"measurement": "Average O.D. reading at 570 nm", "setting": "[3]; 500 uM", "value": 0.3415, "unit": "O.D."}
    ]},
    {"molecule": "O=C(O)C(=O)CBr", "note": "[BrPyA, 3-bromopyruvic acid, reference compound]", "values": [
      {"measurement": "inhibition at 100 µM", "setting": "[1]; Concentration 0.1 mM", "value": 0, "unit": "%"},
      {"measurement": "inhibition at 1000 µM", "setting": "[1]; Concentration 1 mM", "value": 0, "unit": "%"},
      {"measurement": "inhibition at 10000 µM", "setting": "[1]; Concentration 10 mM", "value": 10.9, "unit": "%"},
      {"measurement": "inhibition at 100000 µM", "setting": "[1]; Concentration 100 mM", "value": 57.8, "unit": "%"}
    ]}
  ]
}
